In patent publication US6124327A, “HIV integrase inhibitors” (Merck & Co., Inc., priority 1998, dated 2000):

How the values were obtained:
HIV integrase = molecular target: T1, HIV integrase (Human immunodeficiency virus type 1 group M subtype B, UniProt P04585); test: Strand Transfer Assay for HIV Integrase (microtiter assay, processed donor (HIV) DNA to nonspecific, nicked target DNA); format: biochemical; conditions: inhibitor at various concentrations in the range of 1 to 100 μM
T1 construct: HIV integrase
Procedure: Strand Transfer Assay for HIV Integrase
A microtiter assay for strand transfer of processed donor (HIV) DNA to nonspecific, nicked target DNA was conducted according to Wolfe, et al., J. Virol., 70, 1424 (1996), herein incorporated by reference for these purposes. To assay inhibition of such strand transfer by HIV integrase, the reaction was conducted with inhibitor having various concentrations in the range of 1 to 100 μM.

HIV-1 integrase = molecular target: T2, HIV-1 integrase (Human immunodeficiency virus type 1 group M subtype B, UniProt P04585); test: HIV Integrase Substrate Cleavage (endonucleolytic processing and joining of the 3' end of HIV long terminal repeat terminus; coupled reaction); format: biochemical; conditions: inhibitor at various concentrations in the range of 1 to 100 μM
T2 construct: HIV-1 integrase
Procedure: HIV Integrase Substrate Cleavage
As assay for endonucleolytic processing and joining of the 3' end of HIV long terminal repeat terminus by HIV-1 integrase was conducted according to Hazuda, et al., Nud. Acids Res., 22, 1121 (1994), herein incorporated by reference for these purposes. To assay inhibition of the coupled reaction, the assay was conducted with inhibitor having various concentrations in the range of 1 to 100 μM.

`CCCC(CCCCCCCc1cc(O)cc(O)c1C(=O)OC(CCC)CCCCCCCc1cc(O)cc(O)c1)OC(C)=O` (centres unmarked) [Compound A] was tested. Which IC50 (HIV integrase) did it give?
The IC50 was 32 µM.

And the IC50 (HIV-1 integrase)?
The IC50 was 3.2 µM.

`CCCC(O)CCCCCCCc1cc(O)cc(O)c1C(=O)OC(CCC)CCCCCCCc1cc(O)cc(O)c1` (centres unmarked) [Compound B] was tested. Which IC50 (HIV integrase) did it give?
The IC50 was 17 µM.

And the IC50 (HIV-1 integrase)?
The IC50 was 6.1 µM.

For `CCC/C=C/CCCCCCc1cc(O)cc(O)c1C(=O)OC(CCC)CCCCCCCc1cc(O)cc(O)c1` (centres unmarked) [Compound C], which IC50 (HIV integrase) is on record?
The IC50 was > 88 µM.

And the IC50 (HIV-1 integrase)?
Its IC50 is 3.5 µM.

What does the source list for `CCCC(O)CCCCCCCc1cc(O)cc(O)c1` (centres unmarked) [Compound D]?
IC50 (HIV integrase): > 100 µM; IC50 (HIV-1 integrase): 93 µM
